# Molecular target: human MDM2 protein (amino acids 2-188) (Homo sapiens (Human), UniProt Q00987)
# Assay: TR-FRET assay, p53-MDM2 Assay 2 (modified)
# Assay type: binding
# Conditions: TR-FRET; 0.1 nM MDM2, 0.1 nM Europium labeled streptavidin, Tecan genios Pro reader; read-out: IC50 p53-MDM2 Assay 2
# Procedure, shortened: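 Biotinylated human MDM2 (aa 2–188, 1.25 nM) was preincubated 15 min at room temperature with 0.625 nM Eu-streptavidin, then 10 nM Cy5-p53 peptide (aa 18–26) added for 15 min. TR-FRET ratio 665/620 nm (excitation 340 nm) was read; IC50 came from curve fitting.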
# Sequence of human MDM2 protein (amino acids 2-188) (Q00987 2-188): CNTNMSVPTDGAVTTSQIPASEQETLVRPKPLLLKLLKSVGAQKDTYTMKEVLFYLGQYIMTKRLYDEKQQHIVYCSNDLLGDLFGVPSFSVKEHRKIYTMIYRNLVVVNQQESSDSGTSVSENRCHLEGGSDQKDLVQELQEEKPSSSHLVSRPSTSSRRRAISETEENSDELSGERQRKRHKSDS
row,SMILES,IC50 [nM]
1,"COc1ncc(-c2cc3c(n2C(C)C)[C@](C)(c2ccc(Cl)cc2)N(c2cc(Cl)c(=O)n(C)c2)C3=O)c(OC)n1 [Example 162, (S)-5-(5-Chloro-1-methyl-6-oxo-1,6-dihydro-pyridin-3-yl)-6-(4-chloro-phenyl)-2-(2,4-dimethoxy-pyrimidin-5-yl)-1-isopropyl-6-methyl-5,6-dihydro-1H-pyrrolo[3,4-b]pyrrol-4-one]",49
2,"COc1ncc(-c2cc3c(n2C(C)C)[C@@H](c2ccc(Cl)cc2C)N(c2cc(Cl)c(=O)n(C)c2)C3=O)c(OC)n1 [Example 161, (R)-5-(5-Chloro-1-methyl-6-oxo-1,6-dihydro-pyridin-3-yl)-6-(4-chloro-2-methyl-phenyl)-2-(2,4-dimethoxy-pyrimidin-5-yl)-1-isopropyl-5,6-dihydro-1H-pyrrolo[3,4-b]pyrrol-4-one]",308
3,"COc1nc(N(C)C)ncc1-c1cc2c(n1C(C)C)C(c1ccc(C#N)cc1)N(c1cc(Cl)c(=O)n(C)c1)C2=O (stereo not drawn) [Example 185, 4-[5-(5-Chloro-1-methyl-6-oxo-1,6-dihydro-pyridin-3-yl)-2-(2-dimethylamino-4-methoxy-pyrimidin-5-yl)-1-isopropyl-4-oxo-1,4,5,6-tetrahydro-pyrrolo[3,4-b]pyrrol-6-yl]-benzonitrile]",0.225
4,"COc1ncc(-c2cc3c(n2C(C)C)C(c2ccc(Cl)cc2C)N(c2cc(Cl)c(=O)n(C)c2)C3=O)c(OC)n1 (stereo not drawn) [Example 146, 5-(5-Chloro-1-methyl-6-oxo-1,6-dihydro-pyridin-3-yl)-6-(4-chloro-2-methyl-phenyl)-2-(2,4-dimethoxy-pyrimidin-5-yl)-1-isopropyl-5,6-dihydro-1H-pyrrolo[3,4-b]pyrrol-4-one]",0.216
5,"COc1ccccc1-c1cc2c(n1C(C)C)C(c1ccc(Cl)cc1)N(C1CCOCC1)C2=O (stereo not drawn) [Example 74, 6-(4-Chloro-phenyl)-1-isopropyl-2-(2-methoxy-phenyl)-5-(tetrahydro-pyran-4-yl)-5,6-dihydro-1H-pyrrolo[3,4-b]pyrrol-4-one]",2.57
6,"CNc1ncc(-c2cc3c(n2C(C)C)C(c2ccc(Cl)cc2C)N(c2cc(Cl)c(=O)n(C)c2)C3=O)c(OC)n1 (stereo not drawn) [Example 151, 5-(5-Chloro-1-methyl-6-oxo-1,6-dihydro-pyridin-3-yl)-6-(4-chloro-2-methyl-phenyl)-1-isopropyl-2-(4-methoxy-2-methylamino-pyrimidin-5-yl)-5,6-dihydro-1H-pyrrolo[3,4-b]pyrrol-4-one]",0.243
7,"CNC(=O)c1ccc(OC)c(-c2cc3c(n2C(C)C)[C@@H](c2ccc(Cl)cc2C)N(c2cccc(Cl)c2F)C3=O)c1 [Example 8, 3-[(R)-5-(3-Chloro-2-fluoro-phenyl)-6-(4-chloro-2-methyl-phenyl)-1-isopropyl-4-oxo-1,4,5,6-tetrahydro-pyrrolo[3,4-b]pyrrol-2-yl]-4-methoxy-N-methyl-benzamide]",49
8,"CNC(=O)c1ccc(OC)c(-c2cc3c(n2C(C)C)C(c2ccc(Cl)cc2)N(c2cc(Cl)ccc2C#N)C3=O)c1 (stereo not drawn) [Example 97, 3-[5-(5-Chloro-2-cyano-phenyl)-6-(4-chloro-phenyl)-1-isopropyl-4-oxo-1,4,5,6-tetrahydro-pyrrolo[3,4-b]pyrrol-2-yl]-4-methoxy-N-methyl-benzamide]",0.378
9,"COc1ncc(-c2cc3c(n2C(C)C)[C@H](c2ccc(C#N)c(F)c2)N(c2cc(Cl)c(=O)n(C)c2)C3=O)c(OC)n1 [Example 237, (S)-4-(5-(5-Chloro-1-methyl-6-oxo-1,6-dihydropyridin-3-yl)-2-(2,4-dimethoxypyrimidin-5-yl)-1-isopropyl-4-oxo-1,4,5,6-tetrahydropyrrolo[3,4-b]pyrrol-6-yl)-2-fluorobenzonitrile]",0.107
10,"COc1ccccc1-c1cc2c(n1C(C)C)C(c1ccc(Cl)cc1C)N(c1cc(Cl)c(=O)n(C)c1)C2=O (stereo not drawn) [Example 144, 5-(5-Chloro-1-methyl-6-oxo-1,6-dihydro-pyridin-3-yl)-6-(4-chloro-2-methyl-phenyl)-1-isopropyl-2-(2-methoxy-phenyl)-5,6-dihydro-1H-pyrrolo[3,4-b]pyrrol-4-one]",0.554

# More lines, now with the values ahead:
row,IC50 [nM],SMILES
1,0.139,"COc1nc(N(C)C)ncc1-c1cc2c(n1C(C)C)C(c1ccc(Cl)c(F)c1)N(c1cc(Cl)c(=O)n(C)c1)C2=O (stereo not drawn) [Example 193, 6-(4-Chloro-3-fluoro-phenyl)-5-(5-chloro-1-methyl-6-oxo-1,6-dihydro-pyridin-3-yl)-2-(2-dimethylamino-4-methoxy-pyrimidin-5-yl)-1-isopropyl-5,6-dihydro-1H-pyrrolo[3,4-b]pyrrol-4-one]"
2,5.66,"COc1nc(N)ncc1-c1cc2c(n1C(C)C)C(c1ccc(C#N)cc1)N(c1cc(Cl)cn(C)c1=O)C2=O (stereo not drawn) [Example 129, 4-[2-(2-Amino-4-methoxy-pyrimidin-5-yl)-5-(5-chloro-1-methyl-2-oxo-1,2-dihydro-pyridin-3-yl)-1-isopropyl-4-oxo-1,4,5,6-tetrahydro-pyrrolo[3,4-b]pyrrol-6-yl]-benzonitrile]"
3,0.11,"COc1cn(C)c(=O)cc1-c1cc2c(n1C(C)C)C(c1ccc(Cl)cc1)N(c1cc(Cl)ccc1C)C2=O (stereo not drawn) [Example 149, 5-(5-Chloro-2-methyl-phenyl)-6-(4-chloro-phenyl)-1-isopropyl-2-(5-methoxy-1-methyl-2-oxo-1,2-dihydro-pyridin-4-yl)-5,6-dihydro-1H-pyrrolo[3,4-b]pyrrol-4-one]"
4,7.16,"COc1ncc(-c2cc3c(n2C(C)C)C(c2ccc(Cl)cn2)N(c2cc(Cl)ccc2C)C3=O)c(OC)n1 (stereo not drawn) [Example 235, 5-(5-Chloro-2-methylphenyl)-6-(5-chloropyridin-2-yl)-2-(2,4-dimethoxypyrimidin-5-yl)-1-isopropyl-1-5,6-dihydropyrrolo[3,4-b]pyrrol-4(1H)-one]"
5,31.3,"COc1nc(N(C)C)ncc1-c1cc2c(n1C(C)C)[C@@H](c1ccc(C#N)cc1)N(c1ccc(F)c(Cl)c1)C2=O [Example 170, 4-[(R)-5-(3-Chloro-4-fluoro-phenyl)-2-(2-dimethylamino-4-methoxy-pyrimidin-5-yl)-1-isopropyl-4-oxo-1,4,5,6-tetrahydro-pyrrolo[3,4-b]pyrrol-6-yl]-benzonitrile]"
6,0.188,"COc1ncc(-c2cc3c(n2C(C)C)C(c2ccc(Cl)cc2)N(c2cc(Cl)c(=O)n(C)c2)C3=O)c(OC)n1 (stereo not drawn) [Example 48, 5-(5-Chloro-1-methyl-6-oxo-1,6-dihydro-pyridin-3-yl)-6-(4-chloro-phenyl)-2-(2,4-dimethoxy-pyrimidin-5-yl)-1-isopropyl-5,6-dihydro-1H-pyrrolo[3,4-b]pyrrol-4-one]"
7,10.6,"COc1nc(N(C)C)ncc1-c1cc2c(n1C(C)C)[C@@H](c1ccc(Cl)cc1)N(c1c[nH]c(=O)c(Cl)c1)C2=O [Example 189, (R)-5-(5-Chloro-6-oxo-1,6-dihydro-pyridin-3-yl)-6-(4-chloro-phenyl)-2-(2-dimethylamino-4-methoxy-pyrimidin-5-yl)-1-isopropyl-5,6-dihydro-1H-pyrrolo[3,4-b]pyrrol-4-one]"
8,0.311,"COc1ccc(CC(=O)O)cc1-c1cc2c(n1C(C)C)C(c1ccc(Cl)cc1)N(c1cc(Cl)c(=O)n(C)c1)C2=O (stereo not drawn) [Example 118, {3-[5-(5-Chloro-1-methyl-6-oxo-1,6-dihydro-pyridin-3-yl)-6-(4-chloro-phenyl)-1-isopropyl-4-oxo-1,4,5,6-tetrahydro-pyrrolo[3,4-b]pyrrol-2-yl]-4-methoxy-phenyl}-acetic acid]"
9,281,"COC[C@@H](C)n1c(-c2cnc(N)nc2OC)cc2c1[C@@H](c1ccc(Cl)cc1)N(c1ccc(F)c(Cl)c1)C2=O [Example 230, (R)-2-(2-Amino-4-methoxy-pyrimidin-5-yl)-5-(3-chloro-4-fluoro-phenyl)-6-(4-chloro-phenyl)-1-((R)-2-methoxy-1-methyl-ethyl)-5,6-dihydro-1H-pyrrolo[3,4-b]pyrrol-4-one]"
10,3.22,"COc1nc(N)ncc1-c1cc2c(n1C(C)C)C(c1ccc(C#N)cc1)N(c1cc(Cl)c[nH]c1=O)C2=O (stereo not drawn) [Example 125, 4-[2-(2-Amino-4-methoxy-pyrimidin-5-yl)-5-(5-chloro-2-oxo-1,2-dihydro-pyridin-3-yl)-1-isopropyl-4-oxo-1,4,5,6-tetrahydro-pyrrolo[3,4-b]pyrrol-6-yl]-benzonitrile]"
11,0.069,"COc1nc(N(C)C)ncc1-c1cc2c(n1C(C)C)[C@H](c1ccc(C#N)cc1)N(c1cc(Cl)c(=O)n(C)c1)C2=O [Example 232, (S)-4-(5-(5-Chloro-1-methyl-6-oxo-1,6-dihydropyridin-3-yl)-2-(2-(dimethylamino)-4-methoxypyrimidin-5-yl)-1-isopropyl-4-oxo-1,4,5,6-tetrahydropyrrolo[3,4-b]pyrrol-6-yl)benzonitrile]"
12,0.356,"COc1nc(N(C)C)ncc1-c1cc2c(n1C(C)C)C(c1ccc(Cl)c(F)c1)N(c1cc(Cl)cn(C)c1=O)C2=O (stereo not drawn) [Example 197, 6-(4-Chloro-3-fluoro-phenyl)-5-(5-chloro-1-methyl-2-oxo-1,2-dihydro-pyridin-3-yl)-2-(2-dimethylamino-4-methoxy-pyrimidin-5-yl)-1-isopropyl-5,6-dihydro-1H-pyrrolo[3,4-b]pyrrol-4-one]"
13,0.137,"CNC(=O)c1ccc(OC)c(-c2cc3c(n2C(C)C)C(c2ccc(Cl)cc2)N(c2cc(Cl)c(=O)n(C)c2)C3=O)c1 (stereo not drawn) [Example 49, 3-[5-(5-Chloro-1-methyl-6-oxo-1,6-dihydro-pyridin-3-yl)-6-(4-chloro-phenyl)-1-isopropyl-4-oxo-1,4,5,6-tetrahydro-pyrrolo[3,4-b]pyrrol-2-yl]-4-methoxy-N-methyl-benzamide]"
14,1.44,"COc1nc(N)ncc1-c1cc2c(n1C(C)C)C(c1ccc(Cl)cc1)N(c1cc(Cl)ccc1C#N)C2=O (stereo not drawn) [Example 99, 2-[2-(2-Amino-4-methoxy-pyrimidin-5-yl)-6-(4-chloro-phenyl)-1-isopropyl-4-oxo-4,6-dihydro-1H-pyrrolo[3,4-b]pyrrol-5-yl]-4-chloro-benzonitrile]"

# Reference: US9365576B2, “Pyrrolopyrrolidinone compounds” (Novartis AG, priority 2012, dated 2016)
